Results from patent EP1534672B1, “RETINOL DERIVATIVES, THEIR USE IN THE TREATMENT OF CANCER AND FOR POTENTIATING THE EFFICACY OF OTHER CYTOTOXIC AGENTS” (priority 2002, dated 2004).
Read-outs that look alike come from different tables or passages of the source. Marks after values point to notes of the source that are not given here.

Tests used:
Assay in all cases: Drug cytotoxicity testing (viable cell count, trypan blue exclusion, cell growth inhibition)
Format in all cases: cell-based
[1] = test system: Human Ovary Adenocarcinoma Cell Line SKOV-3; conditions: alone or in formulation at molar ratio 1:6
Procedure: (§1) MDA-MB-231 cells were propagated in MEM culture medium with 2 mM L-glutamine, 10% heat-inactivated fetal bovine serum (FBS) and antibiotics. DU 145 cells were cultured in MEM culture medium containing 2 mM L-glutamine, 1 mM sodium pyruvate, 10% FBS and antibiotics. SKOV-3 cells were cultured in McCoy's 5A culture medium, supplemented with 1,5 mM L-glutamine, 10% FBS and antibiotics. A549 cells were cultured in Ham's F-12 culture medium with 1 mM L-glutamine, 10% FBS and antibiotics. All media and supplements were purchased from Sigma-Aldrich (St.Louis, MO, USA). Cell propagation of all lines was carried out in Falcon™ 25 cm^2 cultivation flasks (Becton Dickinson Labware).
(§2) Drug cytotoxicity testing was carried out with using Falcon™ 96-well cultivation plates for adherent cells (Becton Dickinson Labware). These plates were seeded by cells either at 12 × 10^3 MDA-MB-231 cells/well, or at 12 × 10^3 DU 145 cells/well, or at 14 × 10^3 SKOV-3 cells/well, or at 10 × 10^3 A549 cells/well in a volume of 200 µL/well.
(§3) The cell cultures in cultivation plates were allowed to adhere for 24 hour of incubation. On day 1 after cell seeding, 2 µL solutions of the drugs to be tested in medium with 5% FBS was added to the cultures. In the control cultures, 2 µL of medium with 5% FBS was added as solvent control. The cells were incubated for 2 consecutive days. At the end of the incubation period adherent cells were detached by trypsinization and the number of viable cells was counted using trypan blue exclusion test and a hemocytometer. All data were derived from an average of three determinations each in six replicates. The results were expressed as mean cell number ± SE and the differences between control and test series evaluated by means of Student's t-test. The drug cytotoxicity was evaluated based on the extent of cell growth inhibition. The cell growth inhibition of the tested drugs was calculated as follows: Cell growth inhibition,% = (Control-TestSeries)/(Control) × 100 [formula]

[2] = test system: Human Prostate Carcinoma Cell Line DU 145; conditions: alone or in formulation at molar ratio 1:6
Procedure: as §1, §2, §3

[3] = test system: Human Breast Adenocarcinoma Cell Line MDA-MB-231; conditions: for IC50 / inhibition at 0.1 µM / inhibition at 0.01 µM / inhibition at 0.001 µM: Homo sapiens; for IC50: calculated from three concentrations, read-out: IC50 mol/L (a); for inhibition at 0.1 µM / inhibition at 0.01 µM / inhibition at 0.001 µM: read-out: Cell Growth Inhibition, %
In short: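 A549 cells (10 × 10^3/well) and MDA-MB-231 cells (12 × 10^3/well) were left to adhere for 24 h, then exposed to drugs in medium with 5% FBS for 2 days. Viable cells were counted by trypan blue exclusion after trypsinization. Growth inhibition (%) = (control − test)/control × 100, from three determinations in six replicates each.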

[4] = test system: Human Lung Carcinoma Cell Line A549
[5] = cytotoxic drug 10^-7 mol/L (100 nM), working solutions in medium with 5% FBS, listed as docetaxel, trihydrate
[6] = cytotoxic drug 10^-7 mol/L (100 nM), working solutions in medium with 5% FBS, trihydrate
[7] = cytotoxic drug 10^-7 mol/L (100 nM), working solutions in medium with 5% FBS, trihydrate, 0.1 µM
[8] = cytotoxic drug 10^-8 mol/L, working solutions in medium with 5% FBS
[9] = cytotoxic drug 10^-9 mol/L, working solutions in medium with 5% FBS
[10] = cytotoxic drug 10^-7 mol/L (100 nM), alone or in formulation at molar ratio 1:6, working solutions in medium with 5% FBS, listed as docetaxel, trihydrate
[11] = cytotoxic drug 10^-7 mol/L (100 nM), alone or in formulation at molar ratio 1:6, working solutions in medium with 5% FBS, trihydrate
[12] = cytotoxic drug 10^-7 mol/L (100 nM), alone or in formulation at molar ratio 1:6, working solutions in medium with 5% FBS, trihydrate, 0.1 µM
[13] = cytotoxic drug 10^-8 mol/L, alone or in formulation at molar ratio 1:6, working solutions in medium with 5% FBS
[14] = cytotoxic drug 10^-9 mol/L, alone or in formulation at molar ratio 1:6, working solutions in medium with 5% FBS
[15] = cytotoxic drug alone 10^-7 mol/L, average of positive controls in medium with 5% FBS, normal saline and saline with 2,3 mM CaCl2
[16] = cytotoxic drug alone 10^-8 mol/L, average of positive controls in medium with 5% FBS, normal saline and saline with 2,3 mM CaCl2
[17] = cytotoxic drug alone 10^-9 mol/L, average of positive controls in medium with 5% FBS, normal saline and saline with 2,3 mM CaCl2

## CC(=O)O[C@@]12CO[C@@H]1C[C@H](O)[C@@]1(C)C(=O)[C@H](O)C3=C(C)[C@@H](OC(=O)[C@H](O)[C@@H](NC(=O)OC(C)(C)C)c4ccccc4)C[C@@](O)([C@@H](OC(=O)c4ccccc4)[C@H]21)C3(C)C [Docetaxel, (2R,3S)-N-carboxy-3-phenylisoserine, N-tert-butyl ester, 13-ester with 5β-20-epoxy-1,2α ,4,7β,10β,13α -hexahydroxytax-11-en-9-one 4-acetate 2-benzoate, trihydrate]
[1]; Homo sapiens, SK-OV-3, cytotoxic drug 10^-7 mol/L (100 nM), working solutions in medium with 5% FBS
  inhibition at 0.1 µM: 68.7%
[1]; Homo sapiens, SK-OV-3, cytotoxic drug 10^-8 mol/L, working solutions in medium with 5% FBS
  inhibition at 0.01 µM: 55.5%
[1]; Homo sapiens, SK-OV-3, cytotoxic drug 10^-9 mol/L, working solutions in medium with 5% FBS
  inhibition at 0.001 µM: 34.2%
[1]; Homo sapiens, SK-OV-3, as concentration of cytotoxic drug, medium with 5% FBS, calculated from three concentrations, read-out: IC50 mol/L (a)
  IC50: 5.2 nM
[1]; [5]
  Tumor Cell Number, × 10^3: 16.1 ± 0.94 × 10^3
[1]; [6]
  Tumor Cell Number, × 10^3: 16.8 ± 0.80 × 10^3
[1]; [7]
  Cell Growth Inhibition, %: 67.8* %
[1]; [8]
  Tumor Cell Number, × 10^3: 23.2 ± 2.19 × 10^3
[1]; [9]
  Tumor Cell Number, × 10^3: 34.3 ± 2.01 × 10^3
[2]; Homo sapiens, DU-145, cytotoxic drug 10^-7 mol/L (100 nM), working solutions in medium with 5% FBS
  inhibition at 0.1 µM: 74.5%
[2]; Homo sapiens, DU-145, cytotoxic drug 10^-8 mol/L, working solutions in medium with 5% FBS
  inhibition at 0.01 µM: 51.8%
[2]; Homo sapiens, DU-145, cytotoxic drug 10^-9 mol/L, working solutions in medium with 5% FBS
  inhibition at 0.001 µM: 34.7%
[2]; Homo sapiens, DU-145, as concentration of cytotoxic drug, medium with 5% FBS, calculated from three concentrations, read-out: IC50 mol/L (a)
  IC50: 8 nM
[2]; [5]
  Tumor Cell Number, × 10^3: 14.2 ± 0.85 × 10^3
[2]; [6]
  Tumor Cell Number, × 10^3: 10.8 ± 0.94 × 10^3
[2]; [7]
  Cell Growth Inhibition, %: 74.0* %
[2]; [8]
  Tumor Cell Number, × 10^3: 20.0 ± 1.16 × 10^3
[2]; [9]
  Tumor Cell Number, × 10^3: 27.1 ± 1.07 × 10^3
[3]; MDA-MB-231, as concentration of cytotoxic drug, alone or in formulation at molar ratio 1:6, medium with 5% FBS
  IC50: 3.6 nM
[3]; MDA-MB-231, cytotoxic drug 10^-7 mol/L (100 nM), alone or in formulation at molar ratio 1:6, working solutions in medium with 5% FBS
  inhibition at 0.1 µM: 73.3%
[3]; MDA-MB-231, cytotoxic drug 10^-8 mol/L, alone or in formulation at molar ratio 1:6, working solutions in medium with 5% FBS
  inhibition at 0.01 µM: 58.1%
[3]; MDA-MB-231, cytotoxic drug 10^-9 mol/L, alone or in formulation at molar ratio 1:6, working solutions in medium with 5% FBS
  inhibition at 0.001 µM: 38.7%
[3]; MDA-MB-231, cytotoxic drug alone 10^-7 mol/L, average of positive controls in medium with 5% FBS, normal saline and saline with 2,3 mM CaCl2
  inhibition at 0.1 µM: 76.5%
[3]; MDA-MB-231, cytotoxic drug alone 10^-8 mol/L, average of positive controls in medium with 5% FBS, normal saline and saline with 2,3 mM CaCl2
  inhibition at 0.01 µM: 56.3%
[3]; MDA-MB-231, cytotoxic drug alone 10^-9 mol/L, average of positive controls in medium with 5% FBS, normal saline and saline with 2,3 mM CaCl2
  inhibition at 0.001 µM: 36.4%
[3]; MDA-MB-231, cytotoxic drug alone, average of positive controls
  IC50: 4.6 nM
[3]; [10]
  Tumor Cell Number, × 10^3: 15.4 ± 1.02 × 10^3
[3]; [11]
  Tumor Cell Number, × 10^3: 13.7 ± 1.03 × 10^3
[3]; [12]
  Cell Growth Inhibition, %: 75.4* %
[3]; [13]
  Tumor Cell Number, × 10^3: 23.4 ± 2.15 × 10^3
[3]; [14]
  Tumor Cell Number, × 10^3: 34.2 ± 2.28 × 10^3
[3]; [15]
  Tumor Cell Number, × 10^3: 13.6±0.72 × 10^3
[3]; [16]
  Tumor Cell Number, × 10^3: 25.3±1.18 × 10^3
[3]; [17]
  Tumor Cell Number, × 10^3: 36.8±1.70 × 10^3
[4]; Homo sapiens, A549, cytotoxic drug 10^-7 mol/L (100 nM), alone or in formulation at molar ratio 1:6, working solutions in medium with 5% FBS
  inhibition at 0.1 µM: 80.3%
[4]; Homo sapiens, A549, cytotoxic drug 10^-8 mol/L, alone or in formulation at molar ratio 1:6, working solutions in medium with 5% FBS
  inhibition at 0.01 µM: 71.4%
[4]; Homo sapiens, A549, cytotoxic drug 10^-9 mol/L, alone or in formulation at molar ratio 1:6, working solutions in medium with 5% FBS
  inhibition at 0.001 µM: 37.5%
[4]; Homo sapiens, A549, cytotoxic drug alone 10^-7 mol/L, average of positive controls in medium with 5% FBS, normal saline and saline with 2,3 mM CaCl2
  inhibition at 0.1 µM: 80.3%
[4]; Homo sapiens, A549, cytotoxic drug alone 10^-8 mol/L, average of positive controls in medium with 5% FBS, normal saline and saline with 2,3 mM CaCl2
  inhibition at 0.01 µM: 71%
[4]; Homo sapiens, A549, cytotoxic drug alone 10^-9 mol/L, average of positive controls in medium with 5% FBS, normal saline and saline with 2,3 mM CaCl2
  inhibition at 0.001 µM: 36%
[4]; Homo sapiens, A549, as concentration of cytotoxic drug, alone or in formulation at molar ratio 1:6, medium with 5% FBS, calculated from three concentrations, read-out: IC50 mol/L (a)
  IC50: 2.2 nM
[4]; [10]
  Tumor Cell Number, × 10^3: 10.6 ± 0.72 × 10^3
[4]; [11]
  Tumor Cell Number, × 10^3: 10.5 ± 0.97 × 10^3
[4]; [12]
  Cell Growth Inhibition, %: 80.8* %
[4]; [13]
  Tumor Cell Number, × 10^3: 15.6 ± 0.49 × 10^3
[4]; [14]
  Tumor Cell Number, × 10^3: 34.1 ± 2.07 × 10^3
[4]; [15]
  Tumor Cell Number, × 10^3: 11.0±0.73 × 10^3
[4]; [16]
  Tumor Cell Number, × 10^3: 16.2±0.75 × 10^3
[4]; [17]
  Tumor Cell Number, × 10^3: 35.7±1.51 × 10^3
